Measurements as given in patent US20250213560A1, “NITROGEN-CONTAINING HETEROCYCLIC COMPOUNDS HAVING PHENYL GROUP AND USES THEREOF” (BNH RESEARCH CO., LTD., priority 2022, published 2025).

Columns and labels:
[1] = system: 293T cells; experiment: Cytotoxicity test (CCK-8 cell viability) in 293T cells; format: cell-based, human; conditions: 293T cell line
Method: Human undifferentiated neuroblastoma cell line SH-SY5Y and human embryonic kidney cell line (HEK)-293T were purchased from Korean Cell Line Bank (Korea) and Takara (Japan), respectively. Cells were grown in HyClone Minimal Essential Medium (MEM) and Dulbecco's Modified Eagle Medium (DMEM), respectively, supplemented with 10% (v/v) fetal bovine serum (FBS), penicillin (100 U/mL), and streptomycin ([…]). Cells were maintained in a humidified atmosphere of 95% air and 5% CO2 at 37° C. Cells were passaged 10 times at maximum. Cells were dissociated using 0.05% trypsin-EDTA solution and the cells were seeded in new culture dishes for maintenance.
To examine the cytotoxicity of compounds described herein in human cell lines, SH-SY5Y and 293T cells were used. Approximately 8,000 cells (for 293T) and 15,000 cells (for SH-SY5Y) were plated per well of a 96-well plate (SPL Life Sciences Co., Ltd., Pocheon, Korea). After incubating at 37° C. for 24 hours in a humidified atmosphere containing 5% CO2, the culture medium was replaced by a series of concentrations of test compounds diluted in the corresponding culture medium.
The time of co-incubation was 24 hours and six replicates were made for each measurement. Finally, 10 μL of CCK-8 reagent (Dojindo Laboratories, Rockville, MD) was added to each well, and after incubation at 37° C. for 3 minutes, the OD at 450 nm was measured using a multifunction microplate reader (Tecan Infinite M200 Pro). These measurements were compared to that of a control and expressed as a percentage of the control to calculate cell viability. The IC50 value was calculated using SPSS software. To do this, the absorbance of the blank wells with only growth medium is subtracted from the values or the wells with cells. The readout value of background (vehicle) was set as a 100% viability, and then the percent viability for each test solution was calculated.
The data was presented as the mean value and standard error of the mean (S.E.M.). Statistical analysis was performed with the one-way ANOVA with Tukey's post hoc test (GraphPad Prism 5 software package, version 5.02, GraphPad Software Inc. USA). Significance was accepted at p<0.05.
The cytotoxicity of the compound was evaluated by treating cells with BnH12003 and measuring cell viability.
By treating cells with various BnH12 series compounds and measuring cell viability using the experimental procedure described in Example 2, the cytotoxicity of the compounds was evaluated.

[2] = system: GluN2B; experiment: GluN2B protein expression by Western blot in primary cortical neuron cells; format: cell-based, mouse; conditions: for GluN2B expression effect (in words): compared to vehicle / other compounds, Table 5; for Western blot results Mean (GluN2B expression): relative value, vehicle set to 1, primary cortical neurons treated for 24 hours
Method: Meanwhile, primary cortical neuron cells were isolated from cerebral cortices of 18-day-old mouse fetuses, incubated in prep media (composition (mM): NaCl 107.5, NaH2PO4 1, NaHCO333.5, glucose 11, HEPS 1%, penicillin-streptomycin 1%) containing 0.25% trypsin and DNasel for 30 minutes, dissociated into single cells, and seeded. Primary cortical neuron cells were grown in Neurobasal medium supplemented with 1% (v/v) B27, 1% penicillin (100 U/mL), streptomycin ([…]), and 1% Glutamax. Cells were maintained in a humidified atmosphere of 95% air and 5% CO2 at 37° C. Drug efficacy was evaluated after culturing primary cortical neuron cells for 14 days.
The amount of GluN2B reacted with the compound of the present disclosure was measured using Western blot. The fetal cerebral cortex was extracted from mice at 17 days of gestation, dissociated into single cells, cultured for 13 days, and treated with BnH drugs for 24 hours. The drug-treated cells were subjected to protein lysate preparation using RIPA protein lysis buffer containing protease and phosphatase inhibitors. The protein concentration was determined using a BCA protein assay kit (Pierce Biotechnology) using bovine serum albumin as a standard. Equal amounts of protein (20 μg per lane) were separated by electrophoresis on SDS-polyacrylamide gels at 90 V for 2 hours, then transferred from the SDS-polyacrylamide gel to PVDF membrane at 100 V for 1 hour. Then, primary reaction with GluN2B antibody (ab65783, Abcam) was performed at 4° C. for 1 day, washed three times at 10-minutes intervals with 1×PBT, and secondary reaction was performed with anti-mouse antibody (sc-2357, Santa Cruz) for 1 hour, followed by washing three times at 10-minutes intervals with 1×PBT. Western blotting was performed as described above to confirm GluN2B protein expression. Subsequently, each blot was re-probed using anti-β-actin antibody (sc-47778, Santa Cruz). Housekeeping protein B-actin was detected as a normalization control.
The increase and decrease of BnH12 series were confirmed by setting the vehicle to 1 (N for each group was 3 or more).
Using the experimental procedure described in Example 3, it was determined whether various BnH12 series compounds increase GluN2B expression, and the results are shown in Table 5. These in vitro experimental results are expressed as relative values to the group (vehicle) that was not treated with the compound, with the effect of the group set to 1.

SMILES	Cell viability test results (CCK) 10 uM [1] [%<]	Cell viability test results (CCK) 100 uM [1] [%<]	GluN2B expression effect (in words) [2]	Western blot results Mean (GluN2B expression) [2]
C[C@H]1CC[C@@H](C(=O)O)CN1C(=O)Cc1ccc(-c2cccnc2)cc1 [BnH12046, (3R,6S)-6-methyl-1-(2-(4-(pyridin-3-yl)phenyl)acetyl) piperidine-3-carboxylic acid]	95	90	excellent effects	2.102
C[C@H]1CC[C@@H](C(=O)O)CN1C(=O)Cc1ccc(-c2cnccn2)cc1 [BnH12047, (3R,6S)-6-methyl-1-(2-(4-(pyrazin-2-yl)phenyl)acetyl) piperidine-3-carboxylic acid]	99	99	–	1.554
C[C@H]1CC[C@@H](C(=O)O)CN1C(=O)Cc1ccc(-c2ncccn2)cc1 [BnH12048, (3R,6S)-6-methyl-1-(2-(4-(pyrimidin-2-yl)phenyl)acetyl) piperidine-3-carboxylic acid]	95	80	–	1.071
C[C@H]1CC[C@@H](C(=O)O)CN1C(=O)Cc1ccc(-c2nccn2C)cc1 [BnH12053, sodium (3R,6S)-6-methyl-1-(2-(4-(1-methyl-1H-imidazol-2-yl)phenyl)acetyl) piperidine-3-carboxylate]	95	95	–	1.652
C[C@H]1CC[C@@H](C(=O)O)CN1C(=O)Cc1ccc(-c2cnco2)cc1 [BnH12057, (3R,6S)-6-methyl-1-(2-(4-(oxazol-5-yl)phenyl)acetyl) piperidine-3-carboxylic acid]	95	55	excellent effects	2.241
C[C@H]1CC[C@@H](C(N)=O)CN1C(=O)Cc1ccc(-c2ncccn2)cc1 [BnH12058, (3R,6S)-6-methyl-1-(2-(4-(pyrimidin-2-yl)phenyl)acetyl) piperidine-3-carboxamide]	99	90	–	1.54
C[C@@H]1CC[C@H](C(=O)O)CN1C(=O)Cc1ccc(-c2cccnc2)cc1 [BnH12066, (3S,6R)-6-methyl-1-(2-(4-(pyridin-3-yl)phenyl)acetyl) piperidine-3-carboxylic acid]	99	90	–	1.514
C[C@@H]1CC[C@H](C(=O)O)CN1C(=O)Cc1ccc(-c2cnccn2)cc1 [BnH12067, (3S,6R)-6-methyl-1-(2-(4-(pyrazin-2-yl)phenyl)acetyl) piperidine-3-carboxylic acid]	99	85	excellent effects	2.565
C[C@@H]1CC[C@H](C(=O)O)CN1C(=O)Cc1ccc(-c2cncnc2)cc1 [BnH12071, (3S,6R)-6-methyl-1-(2-(4-(pyrimidin-5-yl)phenyl)acetyl) piperidine-3-carboxylic acid]	80	75	–	1.799
C[C@H]1CC[C@@H](C(=O)O)CN1C(=O)Cc1ccc(-c2cccc([N+](=O)[O-])c2)cc1 [BnH12072, (3R,6S)-6-methyl-1-(2-(3′-nitro-8 1,l′-biphenyl9-4-yl)acetyl) piperidine-3-carboxylic acid]	90	80	–	1.822
C[C@H]1CC[C@@H](C(=O)O)CN1C(=O)Cc1cccc(-c2ccccc2)c1 [BnH12078]	90	75	–	1.017
C[C@H]1CC[C@@H](C(=O)O)CN1C(=O)Cc1ccc(-c2ccc(C3CCCCC3)cc2)cc1 [BnH12085, (3R,6S)-1-(2-(4′-cyclohexyl-8 1,l′-biphenyl9-4-yl)acetyl)-6-methylpiperidine-3-carboxylic acid]	30	0	–	1.557
C[C@H]1CC[C@@H](C(=O)O)CN1C(=O)Cc1ccc(-c2ccc(N)cc2)cc1 [BnH12086, (3R,6S)-1-(2-(4′-amino-8 1,l′-biphenyl9-4-yl)acetyl)-6-methylpiperidine-3-carboxylic acid]	80	70	–	1.753
C[C@H]1CC[C@@H](C(=O)O)CN1C(=O)Cc1ccc(-c2cccc(N)c2)cc1 [BnH12088, (3R,6S)-1-(2-(3′-amino-8 1,l′-biphenyl9-4-yl)acetyl)-6-methylpiperidine-3-carboxylic acid]	90	90	–	1.219
C[C@H]1CC[C@@H](C(=O)O)CN1C(=O)Cc1ccc(-c2ccc(-c3cccnc3)cc2)cc1 [BnH12089, (3R,6S)-6-methyl-1-(2-(4'-(pyridin-3-yl)-[1,1'-biphenyl]-4-yl)acetyl)piperidine-3-carboxylic acid]	65	55	–	1.409
CCN(CC)c1ccc(-c2ccc(CC(=O)N3C[C@H](C(=O)O)CC[C@@H]3C)cc2)cc1 [BnH12090, (3R,6S)-1-(2-(4′-(diethylamino)-8 1,1′-biphenyl9-4-yl)acetyl)-6-methylpiperidine-3-carboxylic acid]	85	30	–	1.698
C[C@H]1CC[C@@H](C(=O)O)CN1C(=O)Cc1cccc(-c2ccncc2)c1 [BnH12091, (3R,6S)-6-methyl-1-(2-(3-(pyridin-4-yl)phenyl)acetyl) piperidine-3-carboxylic acid]	95	85	excellent effects	5.013
COc1ccc(-c2cccc(CC(=O)N3C[C@H](C(=O)O)CC[C@@H]3C)c2)cn1 [BnH12092, (3R,6S)-1-(2-(3-(6-methoxypyridin-3-yl)phenyl)acetyl)-6-methylpiperidine-3-carboxylic acid]	90	75	excellent effects	3.524
C[C@H]1CC[C@@H](C(=O)O)CN1C(=O)Cc1cccc(-c2ncc(F)cn2)c1 [BnH12093, (3R,6S)-1-(2-(3-(5-fluoropyrimidin-2-yl)phenyl)acetyl)-6-methylpiperidine-3-carboxylic acid]	85	80	–	1.611
